Patent publication EP0655506B1 (priority 1994, dated 1995)

Legend:
[1] = biological target: T1, E. coli DNA polymerase I (Klenow fragment) F762Y (Escherichia coli, UniProt P00582, F762Y); test: Gel electrophoresis-based rate of incorporation of dideoxynucleotides relative to deoxynucleotides, 1:1 ratio of dNTPs to ddNTPs (Example 6); assay type: biochemical; settings: for D, discrimination factor (ratio of the use of a specific dNTP to the use of the comparable ddNTP at equal concentrations): 100 µM 4dNTPs and 100 µM of one ddNTP, 5 mM MgCl2, 37 °C; for Incorporation Rate Ratios (dN/ddN): absolute ratios obtained in Example 6 (1:1 dNTPs to ddNTPs)
T1 construct: The large fragment of E. coli DNA polymerase I, commonly called the Klenow fragment; made in house; T7 RNA polymerase promoter; purified by ion exchange chromatography
Text: (§1) The primary application of this test is to determine the absolute ratio of incorporation of a ddNMP to a dNMP for a DNA polymerase that efficiently incorporates dideoxynucleotides, such as T7 DNA polymerase, E. coli DNA polymerase I mutant F762Y or Taq DNA polymerase mutant F667Y. It can also indicate the level of discrimination against ddNTPs of any DNA polymerase; however, for DNA polymerases that discriminate strongly against ddNTPs, such as T7 DNA polymerase mutant Y526F, E. coli DNA polymerase I or Taq DNA polymerase, higher ratios of ddNTP to dNTP are necessary to determine precisely their level of discrimination, which is described in detail in Example 7.
(§2) DNA synthesis reactions are carried out on the ^32P-end labeled 40 mer-M 13 mGP1-2 DNA template complex prepared as described in Example 3. Reaction conditions are used that are optimum for the DNA polymerase being tested with regard to buffer, pH, salts, and temperature of the reaction. A concentration of DNA polymerase is chosen whereby most of the primers are extended in a 10 min reaction and are terminated by the incorporation of a dideoxynucleotide. The reaction mixture contains 100 µM 4dNTPs and 100 µM of one of the four ddNTPs.
(§3) We used this test to compare the ability of six DNA polymerases to incorporate each of the four ddNMPs. The DNA polymerases tested were (1) T7 DNA polymerase with a 28 amino acid deletion in the exonuclease domain and complexed in a one-to-one ratio with thioredoxin (Tabor and Richardson 264 J. Biol. Chem. 6447, 1989) (referred to here as "T7 DNA polymerase"), (2) The large fragment of E. coli DNA polymerase I, commonly called the Klenow fragment (referred to here as "E. coli DNA polymerase I"), (3) Unmodified DNA polymerase from Thermus aquaticus (referred to here as "Taq DNA polymerase"), (4) T7 DNA polymerase as described above in which the tyrosine at residue 526 has been changed to a phenylalanine (referred to here as "T7 DNA polymerase Y526F"), (5) E. coli DNA polymerase I as described above in which the phenylalanine at residue 762 has been changed to a tyrosine (referred to here as "E. coli DNA polymerase I F762Y"), and (6) Taq DNA polymerase as described above in which the phenylalanine at residue 667 has been changed to a tyrosine (referred to here as "Taq DNA polymerase F667Y").
(§4) The reaction mixtures also contained 10 ng of yeast inorganic pyrophosphatase to inhibit pyrophosphorolysis that could otherwise increase the apparent discrimination by the DNA polymerase (Tabor and Richardson 265 j. Biol. Chem. 8322, 1990). The reactions were initiated by the addition of 2 µl of each DNA polymerase, diluted in 20 mM TrisHCl, pH 7.5, 10 mM 2-mercaptoethanol and 0.05% bovine serum albumin to a concentration of approximately 0.025 units/µl. The concentration of each DNA polymerase was sufficient to extend most of the labeled primers by more than 500 nucleotides in the absence of ddNTPs in a 15 min reaction. The reaction mixtures were incubated for 15 min at either 37 °C (T7 DNA polymerase, T7 DNA polymerase Y526F, E. coli DNA polymerase I, and E. coli DNA polymerase F762Y) or 70 °C (Taq DNA polymerase and Taq DNA polymerase F667Y). The reactions were terminated by the addition of 10 µl 90% formamide, 20 mM EDTA, 0.05% bromphenol blue. Each sample was heated at 90°C for 2 min immediately prior to loading 6 µl of each sample onto a gel consisting of 8% polyacrylamide, 0.4% N,N'-methylenebisacrylamide, 7 M urea in 100 mM Trisborate, pH 8.3, 1 mM EDTA. Electrophoresis was at 2000 Volts for 90 min (until the bromphenol blue had just run off the bottom of the gel). After electrophoresis, the gel was dried under vacuum, and autoradiographed. After autoradiography, the distribution of radioactively labeled fragments was determined by Phosphorimager analysis (Molecular Dynamics). […]

Taq DNA polymerase F667Y = biological target: T2, Taq DNA polymerase F667Y (Thermus aquaticus, UniProt P19821, F667Y); test: as above; assay type: biochemical; settings: for D, discrimination factor (ratio of the use of a specific dNTP to the use of the comparable ddNTP at equal concentrations): 100 µM 4dNTPs and 100 µM of one ddNTP, 5 mM MgCl2, 70 °C; for Incorporation Rate Ratios (dN/ddN): absolute ratios obtained in Example 6 (1:1 dNTPs to ddNTPs)
T2 construct: to the gene that produces the full length Taq DNA polymerase; made in house
Text: as §1, §2, §3, §4

T1 sequence (P00582 324-928 F762Y): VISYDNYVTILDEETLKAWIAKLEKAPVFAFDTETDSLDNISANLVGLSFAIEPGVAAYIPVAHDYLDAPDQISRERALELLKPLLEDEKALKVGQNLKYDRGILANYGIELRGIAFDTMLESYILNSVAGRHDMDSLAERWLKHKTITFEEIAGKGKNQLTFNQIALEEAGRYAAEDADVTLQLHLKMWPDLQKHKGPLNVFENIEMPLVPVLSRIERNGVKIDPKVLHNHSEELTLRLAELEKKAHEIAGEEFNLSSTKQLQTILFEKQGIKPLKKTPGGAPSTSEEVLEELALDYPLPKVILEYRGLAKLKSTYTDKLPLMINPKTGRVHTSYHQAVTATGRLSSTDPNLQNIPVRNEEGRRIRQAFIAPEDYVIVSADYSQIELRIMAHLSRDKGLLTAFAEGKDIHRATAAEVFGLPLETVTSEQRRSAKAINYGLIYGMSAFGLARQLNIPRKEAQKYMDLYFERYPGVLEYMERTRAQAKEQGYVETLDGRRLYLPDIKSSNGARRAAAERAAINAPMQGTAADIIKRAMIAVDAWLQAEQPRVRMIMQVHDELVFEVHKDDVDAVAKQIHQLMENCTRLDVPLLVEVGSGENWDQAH
T2 sequence (P19821 whole entry F667Y): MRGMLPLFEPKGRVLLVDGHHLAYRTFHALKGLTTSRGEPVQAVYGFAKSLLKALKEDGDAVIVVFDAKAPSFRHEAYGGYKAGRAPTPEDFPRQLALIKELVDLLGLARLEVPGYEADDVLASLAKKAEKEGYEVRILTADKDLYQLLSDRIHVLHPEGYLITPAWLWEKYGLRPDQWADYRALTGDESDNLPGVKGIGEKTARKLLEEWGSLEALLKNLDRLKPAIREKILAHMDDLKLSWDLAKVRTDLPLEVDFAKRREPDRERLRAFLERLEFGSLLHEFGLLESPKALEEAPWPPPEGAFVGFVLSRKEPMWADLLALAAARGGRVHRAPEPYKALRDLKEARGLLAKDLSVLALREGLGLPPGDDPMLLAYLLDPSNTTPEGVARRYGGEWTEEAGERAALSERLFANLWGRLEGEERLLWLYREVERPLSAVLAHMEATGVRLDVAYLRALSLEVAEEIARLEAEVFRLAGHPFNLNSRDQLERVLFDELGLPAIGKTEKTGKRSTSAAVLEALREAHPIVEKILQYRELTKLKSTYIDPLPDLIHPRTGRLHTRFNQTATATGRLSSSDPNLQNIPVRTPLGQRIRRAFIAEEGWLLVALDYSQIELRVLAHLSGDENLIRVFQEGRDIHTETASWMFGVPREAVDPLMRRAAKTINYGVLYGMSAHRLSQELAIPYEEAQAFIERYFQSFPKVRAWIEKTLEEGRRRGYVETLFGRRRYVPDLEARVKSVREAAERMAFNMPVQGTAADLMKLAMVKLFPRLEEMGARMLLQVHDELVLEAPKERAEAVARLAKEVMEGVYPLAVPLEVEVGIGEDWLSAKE

Row | Structure (SMILES) | D, discrimination factor (ratio of the use of a specific dNTP to the use of the comparable ddNTP at equal concentrations) [1] | Incorporation Rate Ratios (dN/ddN) [1] | D, discrimination factor (ratio of the use of a specific dNTP to the use of the comparable ddNTP at equal concentrations) (Taq DNA polymerase F667Y) | Incorporation Rate Ratios (dN/ddN) (Taq DNA polymerase F667Y)
1 | Nc1ncnc2c1ncn2[C@H]1CC[C@@H](COP(=O)(O)OP(=O)(O)OP(=O)(O)O)O1 [ddATP] | 0.72 | 0.72 | 0.59 | 0.59
2 | Nc1ccn([C@H]2CC[C@@H](COP(=O)(O)OP(=O)(O)OP(=O)(O)O)O2)c(=O)n1 [ddCTP] | 0.75 | 0.75 | 0.32 | 0.32
3 | Nc1nc2c(ncn2[C@H]2CC[C@@H](COP(=O)(O)OP(=O)(O)OP(=O)(O)O)O2)c(=O)[nH]1 [ddGTP] | 0.56 | 0.56 | 0.45 | 0.45
4 | Cc1cn([C@H]2CC[C@@H](COP(=O)(O)OP(=O)(O)OP(=O)(O)O)O2)c(=O)[nH]c1=O [ddTTP] | 0.54 | 0.54 | 0.56 | 0.56
